The text below walks through data of ChEMBL document CHEMBL1138148, “Conformational constraint in oxazolidinone antibacterials. Part 2: Synthesis and structure-activity studies of oxa-, aza-, and thiabicyclo[3.1.0]hexylphenyl oxazolidinones” (2006).

The structures appear in SMILES notation. In brackets after ≈: the same amount, converted by molar mass.

Common to all, as to format: functional
The test system of one test is Streptococcus pneumoniae. Description: Antibacterial activity against Streptococcus pneumoniae SVI SP-3.
The subject of a further test is Moraxella catarrhalis. Description: Antibacterial activity against Moraxella catarrhalis BC-3531.
In another test the test system is Enterococcus faecalis. The experiment in a line: Antibacterial activity against Enterococcus faecalis MGH-2 EF1-1.
Another test deals with Haemophilus influenzae. The experiment in a line: Antibacterial activity against Haemophilus influenzae HI3542. The conditions noted are these: HI-3542.
In test [1] the test system is Staphylococcus aureus. Description: Antibacterial activity against Staphylococcus aureus UC-76 SA-1.
In test [2] the test system is Staphylococcus aureus. The experiment in a line: In vivo efficacy in mouse infected with Staphylococcus aureus UC 9213 administered po. The conditions noted are these: UC 9213, po.

Take `CC(=O)NC[C@H]1CN(c2ccc([C@H]3[C@@H]4CN(C=O)C[C@@H]43)c(F)c2)C(=O)O1`: the MIC in the test on Streptococcus pneumoniae was 1 µg/mL (≈ 2.77 µM); in the test with Moraxella catarrhalis, 8 µg/mL (≈ 22.1 µM); in the test with Enterococcus faecalis, 2 µg/mL (≈ 5.53 µM); against Haemophilus influenzae, 8 µg/mL (≈ 22.1 µM); in the test on Staphylococcus aureus [1], 2 µg/mL (≈ 5.53 µM).

Take `N#CCC(=O)NC[C@H]1CN(c2cc(F)c([C@H]3[C@@H]4CS(=O)(=O)C[C@@H]43)c(F)c2)C(=O)O1`: the MIC against Streptococcus pneumoniae worked out at 2 µg/mL (≈ 4.7 µM); against Moraxella catarrhalis it was 8 µg/mL (≈ 18.8 µM); against Enterococcus faecalis, 4 µg/mL (≈ 9.4 µM); against Haemophilus influenzae, 4 µg/mL (≈ 9.4 µM); in the test on Staphylococcus aureus [1], 4 µg/mL (≈ 9.4 µM).

On to `O=C(CO)NC[C@H]1CN(c2cc(F)c([C@H]3[C@@H]4CS(=O)(=O)C[C@@H]43)c(F)c2)C(=O)O1`, for which the MIC in the test on Streptococcus pneumoniae was determined as 2 µg/mL (≈ 4.8 µM); in the test with Moraxella catarrhalis, 8 µg/mL (≈ 19.2 µM); against Enterococcus faecalis, 4 µg/mL (≈ 9.61 µM); against Haemophilus influenzae it was 8 µg/mL (≈ 19.2 µM); against Staphylococcus aureus [1], 4 µg/mL (≈ 9.61 µM).

One may read the ED50 as the dose at which the effect has come halfway, by size or by number of responders. High values mean weaker potency, low ones greater potency. As for `CC(=O)NC[C@H]1CN(c2cc(F)c([C@H]3[C@@H]4CS(=O)(=O)C[C@@H]43)c(F)c2)C(=O)O1`, the MIC was 1 µg/mL (≈ 2.5 µM) against Streptococcus pneumoniae; 4 µg/mL (≈ 9.99 µM) in the test on Moraxella catarrhalis; 2 µg/mL (≈ 4.99 µM) against Enterococcus faecalis; 8 µg/mL (≈ 20 µM) in the test on Haemophilus influenzae; 2 µg/mL (≈ 4.99 µM) against Staphylococcus aureus [1]. Also, the ED50 with Staphylococcus aureus [2] amounted to 3.1 mg/kg.

Take `CC(=O)NC[C@H]1CN(c2ccc([C@H]3[C@@H]4CN(C#N)C[C@@H]43)c(F)c2)C(=O)O1`: the MIC stood at 1 µg/mL (≈ 2.79 µM) in the test on Streptococcus pneumoniae; 4 µg/mL (≈ 11.2 µM) against Moraxella catarrhalis; 1 µg/mL (≈ 2.79 µM) in the test with Enterococcus faecalis; 8 µg/mL (≈ 22.3 µM) with Haemophilus influenzae; 2 µg/mL (≈ 5.58 µM) against Staphylococcus aureus [1].

On to `CC(=O)NC[C@H]1CN(c2ccc([C@H]3[C@@H]4CN(C(N)=O)C[C@@H]43)c(F)c2)C(=O)O1`, for which the MIC worked out at 2 µg/mL (≈ 5.31 µM) against Streptococcus pneumoniae; 8 µg/mL (≈ 21.3 µM) against Moraxella catarrhalis; 2 µg/mL (≈ 5.31 µM) in the test on Enterococcus faecalis; 8 µg/mL (≈ 21.3 µM) in the test with Haemophilus influenzae; 2 µg/mL (≈ 5.31 µM) against Staphylococcus aureus [1]. The compound also gave a median effective dose (ED50) with Staphylococcus aureus [2] of 15.3 mg/kg.

`CC(=O)NC[C@H]1CN(c2ccc([C@H]3[C@@H]4CN(C(=O)CN)C[C@@H]43)c(F)c2)C(=O)O1`: the MIC against Streptococcus pneumoniae worked out at 1 µg/mL (≈ 2.56 µM); in the test on Moraxella catarrhalis it was 16 µg/mL (≈ 41 µM); with Enterococcus faecalis, 4 µg/mL (≈ 10.2 µM); in the test on Haemophilus influenzae, 16 µg/mL (≈ 41 µM); with Staphylococcus aureus [1] it was 16 µg/mL (≈ 41 µM).

In the case of `CC(F)(F)C(=O)NC[C@H]1CN(c2ccc([C@H]3[C@@H]4CS(=O)(=O)C[C@@H]43)c(F)c2)C(=O)O1`, the MIC against Streptococcus pneumoniae was found to be 2 µg/mL (≈ 4.63 µM); against Moraxella catarrhalis, 8 µg/mL (≈ 18.5 µM); against Enterococcus faecalis it was 8 µg/mL (≈ 18.5 µM); in the test on Haemophilus influenzae, 16 µg/mL (≈ 37 µM); with Staphylococcus aureus [1], 8 µg/mL (≈ 18.5 µM).

Take `O=C(NC[C@H]1CN(c2ccc([C@H]3[C@@H]4CS(=O)(=O)C[C@@H]43)c(F)c2)C(=O)O1)C1CC1`: the MIC against Streptococcus pneumoniae is 2 µg/mL (≈ 4.9 µM); against Moraxella catarrhalis, 4 µg/mL (≈ 9.79 µM); in the test on Enterococcus faecalis it was 4 µg/mL (≈ 9.79 µM); with Haemophilus influenzae it was 4 µg/mL (≈ 9.79 µM); in the test on Staphylococcus aureus [1], 4 µg/mL (≈ 9.79 µM).

Regarding `CC(=O)NC[C@H]1CN(c2ccc([C@H]3[C@@H]4CN(C(=O)CO)C[C@@H]43)cc2)C(=O)O1`, the MIC with Streptococcus pneumoniae is 4 µg/mL (≈ 10.7 µM); against Moraxella catarrhalis, 4 µg/mL (≈ 10.7 µM); against Enterococcus faecalis, 4 µg/mL (≈ 10.7 µM); in the test on Haemophilus influenzae it was 8 µg/mL (≈ 21.4 µM); with Staphylococcus aureus [1] it was 4 µg/mL (≈ 10.7 µM).

`CC(=O)NC[C@H]1CN(c2ccc([C@H]3[C@@H]4CS(=O)(=O)C[C@@H]43)c(F)c2)C(=O)O1`: the MIC is 2 µg/mL (≈ 5.23 µM) against Streptococcus pneumoniae; 8 µg/mL (≈ 20.9 µM) in the test with Moraxella catarrhalis; 4 µg/mL (≈ 10.5 µM) against Enterococcus faecalis; 8 µg/mL (≈ 20.9 µM) in the test with Haemophilus influenzae; 4 µg/mL (≈ 10.5 µM) against Staphylococcus aureus [1]. This compound had an ED50 with Staphylococcus aureus [2] of 4.2 mg/kg.

In the case of `O=C(CO)NC[C@H]1CN(c2ccc([C@H]3[C@@H]4CS(=O)(=O)C[C@@H]43)c(F)c2)C(=O)O1`, the MIC amounted to 4 µg/mL (≈ 10 µM) in the test with Streptococcus pneumoniae; 8 µg/mL (≈ 20.1 µM) with Moraxella catarrhalis; 8 µg/mL (≈ 20.1 µM) with Enterococcus faecalis; 8 µg/mL (≈ 20.1 µM) against Haemophilus influenzae; 8 µg/mL (≈ 20.1 µM) with Staphylococcus aureus [1].

For the compound `CCC(=O)NC[C@H]1CN(c2ccc([C@H]3[C@@H]4CS(=O)(=O)C[C@@H]43)c(F)c2)C(=O)O1`, the MIC in the test with Streptococcus pneumoniae is 1 µg/mL (≈ 2.52 µM); against Moraxella catarrhalis it was 8 µg/mL (≈ 20.2 µM); against Enterococcus faecalis, 2 µg/mL (≈ 5.04 µM); in the test on Haemophilus influenzae it was 8 µg/mL (≈ 20.2 µM); against Staphylococcus aureus [1] it was 4 µg/mL (≈ 10.1 µM).

For the compound `CC(=O)NC[C@H]1CN(c2cc(F)c([C@H]3[C@@H]4CN(C(=O)CO)C[C@@H]43)c(F)c2)C(=O)O1`, the MIC with Streptococcus pneumoniae was found to be 2 µg/mL (≈ 4.89 µM); in the test with Moraxella catarrhalis it was 8 µg/mL (≈ 19.5 µM); against Enterococcus faecalis it was 4 µg/mL (≈ 9.77 µM); with Haemophilus influenzae it was 16 µg/mL (≈ 39.1 µM); in the test with Staphylococcus aureus [1] it was 4 µg/mL (≈ 9.77 µM).

With `CC(F)(F)C(=O)NC[C@H]1CN(c2cc(F)c([C@H]3[C@@H]4CS(=O)(=O)C[C@@H]43)c(F)c2)C(=O)O1`, the MIC is 1 µg/mL (≈ 2.22 µM) against Streptococcus pneumoniae; 8 µg/mL (≈ 17.8 µM) with Moraxella catarrhalis; 2 µg/mL (≈ 4.44 µM) in the test on Enterococcus faecalis; 16 µg/mL (≈ 35.5 µM) against Haemophilus influenzae; 4 µg/mL (≈ 8.88 µM) against Staphylococcus aureus [1].

Regarding `CC(=O)NC[C@H]1CN(c2ccc([C@H]3[C@@H]4CS(=O)(=O)C[C@@H]43)cc2)C(=O)O1`, the MIC against Streptococcus pneumoniae stood at 4 µg/mL (≈ 11 µM); against Moraxella catarrhalis, 8 µg/mL (≈ 22 µM); in the test with Enterococcus faecalis it was 8 µg/mL (≈ 22 µM); with Haemophilus influenzae, 16 µg/mL (≈ 43.9 µM); against Staphylococcus aureus [1], 4 µg/mL (≈ 11 µM). Further, in the test on Staphylococcus aureus [2], it took a dose of 7.2 mg/kg to reach the 50% effect level (ED50).

With `O=C(NC[C@H]1CN(c2cc(F)c([C@H]3[C@@H]4CS(=O)(=O)C[C@@H]43)c(F)c2)C(=O)O1)C1CC1`, the MIC turned out to be 1 µg/mL (≈ 2.34 µM) with Streptococcus pneumoniae; 4 µg/mL (≈ 9.38 µM) against Moraxella catarrhalis; 2 µg/mL (≈ 4.69 µM) in the test with Enterococcus faecalis; 8 µg/mL (≈ 18.8 µM) in the test on Haemophilus influenzae; 2 µg/mL (≈ 4.69 µM) in the test with Staphylococcus aureus [1].

As to `O=C(NC[C@H]1CN(c2ccc([C@H]3[C@@H]4CS(=O)(=O)C[C@@H]43)c(F)c2)C(=O)O1)C1CCC1`, the MIC against Streptococcus pneumoniae was 2 µg/mL (≈ 4.73 µM); in the test on Moraxella catarrhalis it was 32 µg/mL (≈ 75.7 µM); in the test on Enterococcus faecalis, 8 µg/mL (≈ 18.9 µM); against Haemophilus influenzae it was 32 µg/mL (≈ 75.7 µM); with Staphylococcus aureus [1], 8 µg/mL (≈ 18.9 µM).

Consider `CC(=O)NC[C@H]1CN(c2ccc([C@H]3[C@@H]4COC[C@@H]43)cc2)C(=O)O1`, for which the MIC in the test on Streptococcus pneumoniae is 8 µg/mL (≈ 25.3 µM); with Moraxella catarrhalis, 8 µg/mL (≈ 25.3 µM); with Enterococcus faecalis, 16 µg/mL (≈ 50.6 µM); in the test on Haemophilus influenzae it was 32 µg/mL (≈ 101 µM); in the test on Staphylococcus aureus [1] it was 8 µg/mL (≈ 25.3 µM).

Regarding `N#CCC(=O)NC[C@H]1CN(c2ccc([C@H]3[C@@H]4CS(=O)(=O)C[C@@H]43)c(F)c2)C(=O)O1`, the MIC against Streptococcus pneumoniae came out at 4 µg/mL (≈ 9.82 µM); against Moraxella catarrhalis, 8 µg/mL (≈ 19.6 µM); against Enterococcus faecalis, 8 µg/mL (≈ 19.6 µM); in the test with Haemophilus influenzae, 8 µg/mL (≈ 19.6 µM); against Staphylococcus aureus [1], 8 µg/mL (≈ 19.6 µM).

For `CC(=O)NC[C@H]1CN(c2ccc([C@H]3[C@@H]4CNC[C@@H]43)c(F)c2)C(=O)O1`, the MIC with Streptococcus pneumoniae is 2 µg/mL (≈ 6 µM); in the test on Moraxella catarrhalis, 8 µg/mL (≈ 24 µM); against Enterococcus faecalis, 16 µg/mL (≈ 48 µM); against Haemophilus influenzae, 32 µg/mL (≈ 96 µM); against Staphylococcus aureus [1], 8 µg/mL (≈ 24 µM).

In the case of `CC(=O)NC[C@H]1CN(c2cc(F)c([C@H]3[C@@H]4COC[C@@H]43)c(F)c2)C(=O)O1`, the MIC against Streptococcus pneumoniae worked out at 4 µg/mL (≈ 11.4 µM); against Moraxella catarrhalis, 8 µg/mL (≈ 22.7 µM); with Enterococcus faecalis it was 8 µg/mL (≈ 22.7 µM); in the test with Haemophilus influenzae, 32 µg/mL (≈ 90.8 µM); against Staphylococcus aureus [1] it was 8 µg/mL (≈ 22.7 µM).

As to `CCC(=O)NC[C@H]1CN(c2cc(F)c([C@H]3[C@@H]4CS(=O)(=O)C[C@@H]43)c(F)c2)C(=O)O1`, the MIC against Streptococcus pneumoniae turned out to be 1 µg/mL (≈ 2.41 µM); against Moraxella catarrhalis, 4 µg/mL (≈ 9.65 µM); in the test on Enterococcus faecalis, 2 µg/mL (≈ 4.83 µM); with Haemophilus influenzae, 4 µg/mL (≈ 9.65 µM); against Staphylococcus aureus [1], 2 µg/mL (≈ 4.83 µM).

On to `CC(=O)NC[C@H]1CN(c2ccc([C@H]3[C@@H]4CN(C(=O)CO)C[C@@H]43)c(F)c2)C(=O)O1`, for which the MIC amounted to 2 µg/mL (≈ 5.11 µM) against Streptococcus pneumoniae; 8 µg/mL (≈ 20.4 µM) with Moraxella catarrhalis; 2 µg/mL (≈ 5.11 µM) with Enterococcus faecalis; 4 µg/mL (≈ 10.2 µM) against Haemophilus influenzae; 2 µg/mL (≈ 5.11 µM) in the test with Staphylococcus aureus [1]. This compound also showed a median effective dose (ED50) with Staphylococcus aureus [2] of 2.2 mg/kg.

For the compound `CC(=O)NC[C@H]1CN(c2ccc([C@H]3[C@@H]4COC[C@@H]43)c(F)c2)C(=O)O1`, the MIC in the test on Streptococcus pneumoniae was determined as 2 µg/mL (≈ 5.98 µM); in the test with Moraxella catarrhalis, 4 µg/mL (≈ 12 µM); in the test on Enterococcus faecalis, 4 µg/mL (≈ 12 µM); against Haemophilus influenzae it was 8 µg/mL (≈ 23.9 µM); against Staphylococcus aureus [1], 4 µg/mL (≈ 12 µM).
